Test results published in patent US20250092016A1, “COMPOUNDS AND COMPOSITIONS FOR THE TREATMENT OF CORONAVIRAL RELATED DISEASES” (priority 2021, published 2025).

Biological target: SARS-CoV-2 main protease (M^pro) (Severe acute respiratory syndrome coronavirus 2, UniProt P0DTD1)
Test: Rapid-Fire MS Biochemical Assay measuring Mpro activity (5 nM Mpro)
Settings: Table 1B, Mpro inhibition, 5 μM substrate peptide, 120 min, read-out: Rapid-Fire Assay IC50

| SMILES | IC50 |
| --- | --- |
| N#CC1CN(C2CN(CC(F)(F)F)C2)C(=O)N1c1cncc2ccccc12 (racemic) [Compound 133, 3-(isoquinolin-4-yl)-2-oxo-1-(1-(2,2,2-trifluoroethyl)azetidin-3-yl)imidazolidine-4-carbonitrile] | < 20 nM |
| N#C[C@@H]1CN([C@H]2CC[C@H](C(F)(F)F)CC2)C(=O)N1c1cncc2ccccc12 [Compound 128b, (S)-3-(isoquinolin-4-yl)-2-oxo-1-((1 r,4R)-4-(trifluoromethyl)cyclohexyl)imidazolidine-4-carbonitrile] | > 1000 nM |
| N#C[C@@H]1CN(c2ccc(F)cc2F)C(=O)N1c1cncc2ccccc12 (single isomer, unassigned) [Compound 66b] | > 1000 nM |
| N#CC1CN(c2nc(Cl)c[nH]2)C(=O)N1c1cncc2ccccc12 (racemic) [Compound 119, 1-(4-chloro-1H-imidazol-2-yl)-3-(isoquinolin-4-yl)-2-oxoimidazolidine-4-carbonitrile] | 20 to 200 nM |
| Cn1cc(N2CC(C#N)N(c3cncc4ccccc34)C2=O)cn1 (racemic) [Compound 65, 3-(isoquinolin-4-yl)-1-(1-methyl-1H-pyrazol-4-yl)-2-oxoimidazolidine-4-carbonitrile] | 200 to 1000 nM |
| N#C[C@@H]1CN(c2cnc(C(F)(F)F)c(F)c2)C(=O)N1c1cncc2ccccc12 (single isomer, unassigned) [Compound 77b] | 20 to 200 nM |
| CC(C)(O)c1ccc(N2C[C@H](C#N)N(c3cncc4ccccc34)C2=O)cc1 (single isomer, unassigned) [Compound 84a] | 20 to 200 nM |
| N#C[C@H]1CN(c2cc(F)ccc2F)C(=O)N1c1cncc2ccccc12 (single isomer, unassigned) [Compound 109a] | < 20 nM |
| N#C[C@H]1CN(c2cc(Cl)cnn2)C(=O)N1c1cncc2ccccc12 (single isomer, unassigned) [Compound 54a] | 20 to 200 nM |
| CS(=O)(=O)c1cccc(N2C[C@H](C#N)N(c3cncc4ccccc34)C2=O)c1 (single isomer, unassigned) [Compound 48a] | < 20 nM |
| N#C[C@H]1CN(c2ccc(F)c(F)c2)C(=O)N1c1cncc2ccccc12 (single isomer, unassigned) [Compound 72a] | < 20 nM |
| Cc1ccnc(N2C[C@@H](C#N)N(c3cncc4ccccc34)C2=O)n1 (single isomer, unassigned) [Compound 53b] | > 1000 nM |
| N#Cc1cccc(N2C[C@H](C#N)N(c3cncc4ccccc34)C2=O)c1 (single isomer, unassigned) [Compound 52a] | < 20 nM |
| N#C[C@@H]1CN(c2cccc(OC(F)F)c2)C(=O)N1c1cncc2ccccc12 (single isomer, unassigned) [Compound 89b] | > 1000 nM |
| Cc1ccc(C(F)(F)F)nc1N1C[C@H](C#N)N(c2cncc3ccccc23)C1=O (single isomer, unassigned) [Compound 82a] | 20 to 200 nM |
| Cc1ncccc1N1C[C@@H](C#N)N(c2cncc3ccccc23)C1=O (single isomer, unassigned) [Compound 74b] | > 1000 nM |
| N#C[C@@H]1CN(c2ccccc2F)C(=O)N1c1cncc2ccccc12 (single isomer, unassigned) [Compound 56b] | > 1000 nM |
| N#C[C@H]1CN([C@H]2CCC(F)(F)C2)C(=O)N1c1cncc2ccccc12 (single isomer, unassigned) [Compound 141d, (R)-1-((S)-3,3-difluorocyclopentyl)-3-(isoquinolin-4-yl)-2-oxoimidazolidine-4-carbonitrile or (R)-1-((R)-3,3-difluorocyclopentyl)-3-(isoquinolin-4-yl)-2-oxoimidazolidine-4-carbonitrile] | 20 to 200 nM |
| N#C[C@H]1CN([C@H]2C[C@H](C(F)(F)F)C2)C(=O)N1c1cncc2ccccc12 [Compound 45a, (R)-3-(isoquinolin-4-yl)-2-oxo-1-((1 r,3R)-3-(trifluoromethyl)cyclobutyl)imidazolidine-4-carbonitrile] | < 20 nM |
| COc1cnc(C(F)(F)F)nc1N1C[C@@H](C#N)N(c2cncc3ccccc23)C1=O (single isomer, unassigned) [Compound 31b] | > 1000 nM |
| N#C[C@@H]1CN(c2ccc(C(F)F)cn2)C(=O)N1c1cncc2ccccc12 (single isomer, unassigned) [Compound 78b] | > 1000 nM |
| Cc1cc(Cl)cnc1N1C[C@H](C#N)N(c2cncc3ccccc23)C1=O (single isomer, unassigned) [Compound 80a] | 20 to 200 nM |
| N#C[C@H]1CN(c2cnc(C(F)(F)F)nc2)C(=O)N1c1cncc2ccccc12 (single isomer, unassigned) [Compound 93a] | < 20 nM |
| N#C[C@@H]1CN(C2CC3(CCC3)C2)C(=O)N1c1cncc2ccccc12 (single isomer, unassigned) [Compound 122b] | > 1000 nM |
| N#CC1CN(c2ccc(F)cc2F)C(=O)N1c1cncc2ccccc12 (racemic) [Compound 66, 1-(2,4-difluorophenyl)-3-(isoquinolin-4-yl)-2-oxoimidazolidine-4-carbonitrile] | 20 to 200 nM |
| N#C[C@@H]1CN(c2nc(Cl)c[nH]2)C(=O)N1c1cncc2ccccc12 (single isomer, unassigned) [Compound 119b] | > 1000 nM |
| COc1ccc(C(F)(F)F)cc1N1C[C@@H](C#N)N(c2cncc3ccc(S(C)(=O)=O)cc23)C1=O (single isomer, unassigned) [Compound 38b] | > 1000 nM |

| SMILES | IC50 |
| --- | --- |
| N#C[C@@H]1CN(c2ccc(F)c(F)c2)C(=O)N1c1cncc2ccccc12 (single isomer, unassigned) [Compound 72b] | 200 to 1000 nM |
| COc1ccc(C(F)(F)F)nc1N1C[C@H](C#N)N(c2cncc3ccccc23)C1=O (single isomer, unassigned) [Compound 47a] | 20 to 200 nM |
| CC(C)[C@H]1C[C@H](N2C[C@H](C#N)N(c3cncc4ccccc34)C2=O)C1 [Compound 123b, (R)-1-((1r,3R)-3-isopropylcyclobutyl)-3-(isoquinolin-4-yl)-2-oxoimidazolidine-4-carbonitrile] | < 20 nM |
| N#CC1CN(c2cccc(OC(F)(F)F)c2)C(=O)N1c1cncc2ccccc12 (racemic) [Compound 92, 3-(isoquinolin-4-yl)-2-oxo-1-(3-(trifluoromethoxy)phenyl)imidazolidine-4-carbonitrile] | < 20 nM |
| Cc1cnc(C(F)(F)F)nc1N1C[C@H](C#N)N(c2cncc3ccccc23)C1=O (single isomer, unassigned) [Compound 62a] | 200 to 1000 nM |
| N#CC1CN(c2cccc(Cl)c2)C(=O)N1c1cncc2ccc(C(N)=O)cc12 (centres unmarked) [Compound 35, 4-(3-(3-chlorophenyl)-5-cyano-2-oxoimidazolidin-1-yl)isoquinoline-6-carboxamide] | < 20 nM |
| N#C[C@H]1CN(c2cccc(OC(F)F)c2)C(=O)N1c1cncc2ccccc12 (single isomer, unassigned) [Compound 89a] | < 20 nM |
| N#C[C@@H]1CN(c2cc(C(F)(F)F)cnn2)C(=O)N1c1cncc2ccccc12 (single isomer, unassigned) [Compound 30b] | > 1000 nM |
| CC1CC(N2CC(C#N)N(c3cncc4ccccc34)C2=O)C1 (single isomer, unassigned) [Compound 120d] | > 1000 nM |
| N#Cc1ccc2cncc(N3C(=O)N(c4cccc(Cl)c4)C[C@H]3C#N)c2c1 (single isomer, unassigned) [Compound 39b] | > 1000 nM |
| N#C[C@H]1CN(c2ccc(OC(F)F)cc2)C(=O)N1c1cncc2ccccc12 (single isomer, unassigned) [Compound 71a] | < 20 nM |
| N#Cc1ccc(C(F)(F)F)cc1N1C[C@H](C#N)N(c2cncc3ccccc23)C1=O (single isomer, unassigned) [Compound 90a] | < 20 nM |
| N#C[C@@H]1CN(c2cc(F)ccc2F)C(=O)N1c1cncc2ccccc12 (single isomer, unassigned) [Compound 109b] | > 1000 nM |
| CC(C)c1ccc(N2C[C@H](C#N)N(c3cncc4ccccc34)C2=O)cn1 (single isomer, unassigned) [Compound 94a] | < 20 nM |
| N#C[C@@H]1CN(c2ccnc(C(F)(F)F)c2)C(=O)N1c1cncc2ccccc12 (single isomer, unassigned) [Compound 57b] | > 1000 nM |
| Cc1ccc(C#N)c(N2C[C@@H](C#N)N(c3cncc4ccccc34)C2=O)c1 (single isomer, unassigned) [Compound 116b] | 200 to 1000 nM |
| N#C[C@@H]1CN(c2cccc(Cl)c2)C(=O)N1c1cncc2ccc(C(=O)O)cc12 (single isomer, unassigned) [Compound 33b] | > 1000 nM |
| N#C[C@H]1CN(c2ncc(C(F)(F)F)[nH]2)C(=O)N1c1cncc2ccccc12 (single isomer, unassigned) [Compound 68a] | 20 to 200 nM |
| CC1(C)CC(N2C[C@@H](C#N)N(c3cncc4ccccc34)C2=O)C1 (single isomer, unassigned) [Compound 126b] | > 1000 nM |
| N#CC1CN(C2CC(O)(C(F)(F)F)C2)C(=O)N1c1cncc2ccccc12 (racemic) [Compound 28, 1-(3-hydroxy-3-(trifluoromethyl)cyclobutyl)-3-(isoquinolin-4-yl)-2-oxoimidazolidine-4-carbonitrile] | 20 to 200 nM |
| N#C[C@@H]1CN(c2ncc(C(F)(F)F)[nH]2)C(=O)N1c1cncc2ccccc12 (single isomer, unassigned) [Compound 68b] | > 1000 nM |
| N#C[C@H]1CN(c2ccc(C(F)F)nc2)C(=O)N1c1cncc2ccccc12 (single isomer, unassigned) [Compound 75a] | < 20 nM |
| Cn1c(C(F)(F)F)ccc(N2C[C@@H](C#N)N(c3cncc4ccccc34)C2=O)c1=O (single isomer, unassigned) [Compound 96b] | > 1000 nM |
| COc1ccc(C(F)(F)F)cc1N1C[C@H](C#N)N(c2cncc3ccc(S(C)(=O)=O)cc23)C1=O (single isomer, unassigned) [Compound 38a] | < 20 nM |
| CS(=O)(=O)c1ccc2cncc(N3C(=O)N(c4ccc(F)c(F)c4)C[C@H]3C#N)c2c1 (single isomer, unassigned) [Compound 85b] | > 1000 nM |
| Cc1c[nH]c(N2C[C@@H](C#N)N(c3cncc4ccccc34)C2=O)n1 (single isomer, unassigned) [Compound 118b] | > 1000 nM |
